In patent publication US20240228499A1, “MASP-2 INHIBITORS AND METHODS OF USE” (Omeros Corporation, priority 2022, published 2024):
Structures can show the parent of a compound that is named as a salt.

How the values were obtained:
Type in all cases: biochemical
MASP-2 (CCP1-CCP2-SP) = target: T1, MASP-2 (CCP1-CCP2-SP) (Homo sapiens, UniProt O00187); assay: Enzymatic assay for MASP-2 inhibitory activity (fluorogenic substrate); settings: room temperature, 20 mM Hepes pH 7.4, 20 min
T1 construct: 15 μL of Enzyme MASP-2 (CCP1-CCP2-SP) in Assay Buffer
Method in brief: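 Human MASP-2 CCP1-CCP2-SP construct with a C2-cleavage-site fluorogenic substrate in 20 mM HEPES pH 7.4, 140 mM NaCl, 0.1% Tween 20, 20 min at room temperature before acetic acid stop. Activity normalised to DMSO and no-enzyme controls; IC50 taken as equivalent to Ki under linear conditions.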

human a-thrombin = target: T2, human a-thrombin (Homo sapiens, UniProt P00734); assay: Enzymatic assay for thrombin (fluorogenic peptide substrate Boc-VPR-AMC); settings: room temperature, 20 mM Hepes pH 7.4, 20 min
T2 construct: enzyme (human a-thrombin (BioPharm® Lab.)); purchased BioPharm Lab
Method in brief: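 Human α-thrombin was incubated with serially diluted compound and fluorogenic substrate Boc-VPR-AMC in 20 mM Hepes pH 7.4, 140 mM NaCl, 0.1% Tween 20 at room temperature. The reaction was stopped after 20 min with 0.1 M acetic acid and fluorescence read. % activity was normalized to DMSO and no-enzyme controls, and IC50 was taken as equivalent to Ki.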

[1] = system: Lectin Pathway Activation (LPA) in human serum; assay: Lectin pathway activation (LPA) assay in human serum, C4 deposition on mannan-coated plate; settings: 1% pooled human serum, 55 minutes, room temperature
Experimental: A Microtiter ELISA plate (Nunc-Maxi Sorp; Sigma-Aldrich®, USA) was coated with mannan sourced from Saccharomyces cerevisiae (Sigma-Aldrich®, USA) in a coating buffer comprising 33.3 mM Na2CO3 and 166.67 mM NaHCO3. The plates were incubated at room temperature overnight. Subsequently, the plates were blocked with a 5% bovine serum albumin solution (Sigma-Aldrich®, USA) prepared in PBST for 2 hours at room temperature with agitation. Varying concentrations of MASP-2 inhibitors were dispensed onto the empty plate.
To perform the assay, pooled human serum was diluted to 1% in a solution of 20 mM HEPES (pH=7.4), 140 mM NaCl, and 1 mM MgCl2. Then, 40 μl of the diluted human serum was dispensed into each well of the Microtiter ELISA plate and incubated for 55 minutes at room temperature. The C4 deposition on the mannan-coated surface was stopped using an EDTA stop solution (20 mM HEPES, pH=7.4, 140 mM NaCl, and 150 mM EDTA). Subsequently, rabbit anti-Human C4c antibody (Agilent Technologies, USA) prepared in PBST was added, and the plates were incubated at room temperature for 30 minutes with agitation, then washed with PBST, and Goat anti-rabbit IgG(H+L) HRP-conjugated (Southern Biotech®, USA) was added. The plates were again incubated at room temperature for 30 minutes with agitation, and then were washed with PBST. Following this, the Amplex® UltraRed® (Thermo Fischer Sci, USA) substrate solution was added for 16 minutes, followed by the addition of the Amplex® UltraRed® stop solution. The plates' fluorescence was measured using an i3× microplate reader (Molecular Devices, USA) with excitation at 550 nm and emission at 580 nm. The raw data generated from the plate reader was exported to GraphPad Prism® (version 10.0.3), and the non-linear regression curve was generated using the 4-parameter logistic fit equation. All data are reported as pIC50 with a 95% confidence interval.

T1 sequence (O00187 287-686 limits assumed): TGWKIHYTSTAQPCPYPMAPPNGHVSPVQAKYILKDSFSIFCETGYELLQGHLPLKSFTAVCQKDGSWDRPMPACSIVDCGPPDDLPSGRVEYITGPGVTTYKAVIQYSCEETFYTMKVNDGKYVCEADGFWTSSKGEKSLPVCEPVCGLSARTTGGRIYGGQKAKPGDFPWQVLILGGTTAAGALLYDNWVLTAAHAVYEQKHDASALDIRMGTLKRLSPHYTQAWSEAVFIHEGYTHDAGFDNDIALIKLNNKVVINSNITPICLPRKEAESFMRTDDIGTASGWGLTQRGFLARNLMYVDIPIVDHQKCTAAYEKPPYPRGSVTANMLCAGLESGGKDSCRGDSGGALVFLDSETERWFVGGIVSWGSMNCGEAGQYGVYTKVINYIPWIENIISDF

Structure (SMILES)	Ki (MASP-2 (CCP1-CCP2-SP)) [nM]	Ki (human a-thrombin) [nM]	IC50 [1] [nM]
Cc1cc(Cl)cc(CNc2cnc3n(c2=O)[C@H](C(=O)NCc2cnc4c(c2)CNC4)CC3)c1 [Compound 65, (S)-3-((3-chloro-5-methylbenzyl)amino)-N-((6,7-dihydro-5H-pyrrolo[3,4-b]pyridin-3-yl)methyl)-4-oxo-4,6,7,8-tetrahydropyrrolo[1,2-a]pyrimidine-6-carboxamide, di-trifluoroacetate]	< 500	> 25000	< 500
Cc1ccc(C)c(CNc2cnc3n(c2=O)[C@H](C(=O)N[C@@H]2CCc4nc(N)ccc42)CC3)c1 [Compound 94]	< 500	500 to 2500	< 500
Cc1cc(C)cc(CNc2cnc3n(c2=O)[C@H](C(=O)NCc2ccc4cncn4c2)CC3)c1 [Compound 20, (S)-3-((3,5-dimethylbenzyl)amino)-N-(imidazo[1,5-a]pyridin-6-ylmethyl)-4-oxo-4,6,7,8-tetrahydropyrrolo[1,2-a]pyrimidine-6-carboxamide]	< 500	> 25000	< 500
Cc1cc(C)cc(CNc2cnc3n(c2=O)[C@H](C(=O)N[C@@H]2CCc4nc(N)ccc42)CC3)c1 [Compound 81, (S)—N—((R)-2-amino-6,7-dihydro-5H-cyclopenta[b]pyridin-5-yl)-3-((3,5-dimethylbenzyl)amino)-4-oxo-4,6,7,8-tetrahydropyrrolo[1,2-a]pyrimidine-6-carboxamide]	< 500	500 to 2500	< 500
Cc1cccc(CNc2cnc3n(c2=O)[C@H](C(=O)N[C@@H]2CCc4nc(N)ccc42)CC3)c1 [Compound 82, (S)—N—((R)-2-amino-6,7-dihydro-5H-cyclopenta[b]pyridin-5-yl)-3-((3-methylbenzyl)amino)-4-oxo-4,6,7,8-tetrahydropyrrolo[1,2-a]pyrimidine-6-carboxamide]	< 500	500 to 2500	< 500
Cc1ccc(F)c(CNc2cnc3n(c2=O)[C@H](C(=O)N[C@@H]2CCc4nc(N)ccc42)CC3)c1 [Compound 95]	< 500	500 to 2500	< 500
COc1cc(Cl)cc(CNc2cnc3n(c2=O)[C@H](C(=O)N[C@H](C)c2ccc(N)nc2)CC3)c1 [Compound 76, (S)-N-((R)-1-(6-aminopyridin-3-yl)ethyl)-3-((3-chloro-5-methoxybenzyl)amino)-4-oxo-4,6,7,8-tetrahydropyrrolo[1,2-a]pyrimidine-6-carboxamide]	< 500	10000 to 25000	< 500
Cc1cc(C)cc(CNc2cnc3n(c2=O)[C@H](C(=O)NCc2cnc4c(c2)CNC4)CC3)c1 [Compound 22, (S)—N-((6,7-dihydro-5H-pyrrolo[3,4-b]pyridin-3-yl)methyl)-3-((3,5-dimethylbenzyl)amino)-4-oxo-4,6,7,8-tetrahydropyrrolo[1,2-a]pyrimidine-6-carboxamide, trifluoroacetate]	< 500	> 25000	< 500
Cc1nc(N)ccc1CNC(=O)[C@@H]1CCc2ncc(NCc3cccc(F)c3)c(=O)n21 [Compound 53, (S)—N-((6-amino-2-methylpyridin-3-yl)methyl)-3-((3-fluorobenzyl)amino)-4-oxo-4,6,7,8-tetrahydropyrrolo[1,2-a]pyrimidine-6-carboxamide]	< 500	500 to 2500	< 500
Cc1cc(C)cc(CNc2cnc3n(c2=O)[C@H](C(=O)N[C@H](C)c2ccc(N)nc2C)CC3)c1 [Compound 64, (S)-N-((R)-1-(6-amino-2-methylpyridin-3-yl)ethyl)-3-((3,5-dimethylbenzyl)amino)-4-oxo-4,6,7,8-tetrahydropyrrolo[1,2-a]pyrimidine-6-carboxamide]	< 500	10000 to 25000	< 500
Cc1nc(N)ccc1CNC(=O)[C@@H]1CCc2ncc(NCc3ccc(-n4cccn4)cc3)c(=O)n21 [Compound 44, (S)-3-((4-(1H-pyrazol-1-yl)benzyl)amino)-N-((6-amino-2-methylpyridin-3-yl)methyl)-4-oxo-4,6,7,8-tetrahydropyrrolo[1,2-a]pyrimidine-6-carboxamide, trifluoroacetate]	< 500	10000 to 25000	< 500
Nc1ccc2c(n1)CC[C@H]2NC(=O)[C@@H]1CCc2ncc(NCc3ccc4c(c3)COC4)c(=O)n21 [Compound 100]	< 500	2500 to 10000	< 500
COc1ccc(CNc2cnc3n(c2=O)[C@H](C(=O)NCc2ccc(N)nc2C)CC3)cc1F [Compound 46, (S)-N-((6-amino-2-methylpyridin-3-yl)methyl)-3-((3-fluoro-4-methoxybenzyl)amino)-4-oxo-4,6,7,8-tetrahydropyrrolo[1,2-a]pyrimidine-6-carboxamide, di-trifluoroacetate]	< 500	500 to 2500	< 500
Cc1ccc(F)c(CNc2cnc3n(c2=O)[C@H](C(=O)NCc2cc4c(s2)CNC4)CC3)c1 [Compound 50, (S)—N-((5,6-dihydro-4H-thieno[2,3-C]pyrrol-2-yl)methyl)-3-((2-fluoro-5-methylbenzyl)amino)-4-oxo-4,6,7,8-tetrahydropyrrolo[1,2-a]pyrimidine-6-carboxamide, di-trifluoroacetate]	< 500	2500 to 10000	< 500
N#CC1C2CC1C2CNc1cnc2n(c1=O)[C@H](C(=O)N[C@@H]1CCc3nc(N)ccc31)CC2 (stereo partly drawn) [Compound 86, (6S)—N—((R)-2-amino-6,7-dihydro-5H-cyclopenta[b]pyridin-5-yl)-3-(((4-cyanobicyclo[1.1.1]pentan-2-yl)methyl)amino)-4-oxo-4,6,7,8-tetrahydropyrrolo[1,2-a]pyrimidine-6-carboxamide]	< 500	> 25000	< 500
Cc1ccccc1CNc1cnc2n(c1=O)[C@H](C(=O)NCc1ccc(N)nc1C)CC2 [Compound 54, (S)—N-((6-amino-2-methylpyridin-3-yl)methyl)-3-((2-methylbenzyl)amino)-4-oxo-4,6,7,8-tetrahydropyrrolo[1,2-a]pyrimidine-6-carboxamide]	< 500	500 to 2500	< 500
CS(=O)(=O)c1cccc(CNc2cnc3n(c2=O)[C@H](C(=O)N[C@@H]2CCc4nc(N)ccc42)CC3)c1 [Compound 97]	< 500	500 to 2500	< 500
N#Cc1cc(CNc2cnc3n(c2=O)[C@H](C(=O)N[C@@H]2CCc4nc(N)ccc42)CC3)cc(C(F)(F)F)c1 [Compound 90, (S)-N-((R)-2-amino-6,7-dihydro-5H-cyclopenta[b]pyridin-5-yl)-3-((3-cyano-5-(trifluoromethyl)benzyl)amino)-4-oxo-4,6,7,8-tetrahydropyrrolo[1,2-a]pyrimidine-6-carboxamide]	< 500	500 to 2500	< 500
Nc1ccc2c(n1)CC[C@H]2NC(=O)[C@@H]1CCc2ncc(NCc3cccc(C(F)(F)F)c3)c(=O)n21 [Compound 105]	< 500	2500 to 10000	< 500
Cc1ccc(CNc2cnc3n(c2=O)[C@H](C(=O)NCc2ccc(N)nc2C)CC3)cc1C [Compound 72, (S)-N-((6-amino-2-methylpyridin-3-yl)methyl)-3-((3,4-dimethylbenzyl)amino)-4-oxo-4,6,7,8-tetrahydropyrrolo[1,2-a]pyrimidine-6-carboxamide]	< 500	500 to 2500	< 500
Cc1cc(C)cc(CNc2cnc3n(c2=O)[C@H](C(=O)NCc2cnc4[nH]cc(Cl)c4c2)CC3)c1 [Compound 18, (S)—N-((3-chloro-1H-pyrrolo[2,3-b]pyridin-5-yl)methyl)-3-((3,5-dimethylbenzyl)amino)-4-oxo-4,6,7,8-tetrahydropyrrolo[1,2-a]pyrimidine-6-carboxamide, trifluoracetate]	< 500	2500 to 10000	< 500
Cc1cc(C)cc(CNc2cnc3n(c2=O)[C@H](C(=O)N[C@H](C)c2cc4c(s2)CNC4)CC3)c1 [Compound 106]	< 500	> 25000	< 500
